Laboratory results: US20080234304A1, “N3-Pyridyl-Thiamine And Its Use In Cancer Treatments” (AVEO PHARMACEUTICALS, INC., priority 2004, published 2008)

Experiments:
[1] = target: T1, alpha-ketoglutarate dehydrogenase (kGDH) (Homo sapiens, UniProt Q02218); assay: kGDH activity in extracts from cells incubated with N3PT; type: cell-based; conditions: extracts from cells incubated with increasing concentrations of N3PT; read-out: IC50 kGDH (selectivity comparison, FIG. 9)
T1 construct: endogenous in cells
T1 sequence (Q02218 41-1023): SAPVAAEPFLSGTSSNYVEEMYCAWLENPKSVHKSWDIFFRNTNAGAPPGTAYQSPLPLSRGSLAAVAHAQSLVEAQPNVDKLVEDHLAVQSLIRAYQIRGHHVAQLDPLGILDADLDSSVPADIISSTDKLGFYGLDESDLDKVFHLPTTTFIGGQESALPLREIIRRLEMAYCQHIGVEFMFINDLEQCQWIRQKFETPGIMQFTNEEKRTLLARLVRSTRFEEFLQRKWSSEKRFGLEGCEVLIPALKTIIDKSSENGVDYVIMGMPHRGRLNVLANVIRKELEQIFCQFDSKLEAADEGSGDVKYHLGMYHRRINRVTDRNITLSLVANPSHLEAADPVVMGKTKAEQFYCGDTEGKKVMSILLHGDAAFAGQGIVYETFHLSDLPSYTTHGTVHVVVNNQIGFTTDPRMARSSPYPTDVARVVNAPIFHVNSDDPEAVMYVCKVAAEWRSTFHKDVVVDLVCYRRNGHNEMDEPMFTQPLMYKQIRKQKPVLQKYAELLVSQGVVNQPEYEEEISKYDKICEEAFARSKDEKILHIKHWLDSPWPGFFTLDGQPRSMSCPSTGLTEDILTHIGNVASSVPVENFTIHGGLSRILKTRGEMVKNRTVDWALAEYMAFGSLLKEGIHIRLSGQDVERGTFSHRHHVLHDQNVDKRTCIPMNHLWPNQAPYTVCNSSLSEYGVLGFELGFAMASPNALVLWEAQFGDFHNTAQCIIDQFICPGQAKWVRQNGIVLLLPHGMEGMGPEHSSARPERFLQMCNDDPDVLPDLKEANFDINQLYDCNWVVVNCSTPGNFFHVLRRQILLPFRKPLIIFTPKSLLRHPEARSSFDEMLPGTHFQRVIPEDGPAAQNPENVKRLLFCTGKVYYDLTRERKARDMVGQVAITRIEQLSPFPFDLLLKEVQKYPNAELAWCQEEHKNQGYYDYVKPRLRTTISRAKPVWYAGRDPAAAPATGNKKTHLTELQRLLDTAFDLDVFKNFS
T1 sequence (P36957 68-453 partner): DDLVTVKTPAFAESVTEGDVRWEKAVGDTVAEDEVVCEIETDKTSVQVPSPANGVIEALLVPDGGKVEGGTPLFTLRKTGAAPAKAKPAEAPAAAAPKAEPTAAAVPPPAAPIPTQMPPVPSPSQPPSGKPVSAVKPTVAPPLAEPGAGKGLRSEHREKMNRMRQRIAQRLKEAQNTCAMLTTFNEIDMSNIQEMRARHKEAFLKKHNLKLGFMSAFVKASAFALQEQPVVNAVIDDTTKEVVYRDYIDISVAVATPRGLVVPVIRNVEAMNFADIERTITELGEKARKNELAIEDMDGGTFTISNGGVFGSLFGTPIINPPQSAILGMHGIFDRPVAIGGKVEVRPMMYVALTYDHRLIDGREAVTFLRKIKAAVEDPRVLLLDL
T1 sequence (P09622 36-509 partner): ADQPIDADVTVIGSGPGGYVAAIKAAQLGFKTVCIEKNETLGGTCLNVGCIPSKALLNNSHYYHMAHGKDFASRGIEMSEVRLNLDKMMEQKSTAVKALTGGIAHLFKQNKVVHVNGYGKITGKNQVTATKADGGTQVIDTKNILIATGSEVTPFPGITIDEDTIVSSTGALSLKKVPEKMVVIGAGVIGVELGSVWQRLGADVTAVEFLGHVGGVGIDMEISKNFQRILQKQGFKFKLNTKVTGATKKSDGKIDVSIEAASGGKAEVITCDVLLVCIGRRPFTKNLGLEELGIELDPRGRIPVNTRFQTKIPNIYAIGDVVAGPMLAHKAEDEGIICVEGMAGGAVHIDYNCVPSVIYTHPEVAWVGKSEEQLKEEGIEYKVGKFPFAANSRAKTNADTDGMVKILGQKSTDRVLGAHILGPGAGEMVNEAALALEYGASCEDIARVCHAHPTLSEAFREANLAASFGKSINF
Experimental: TK, kGDH and PDH enzymes all utilize thiamine pyrophosphate (TPP) as a co-factor for their catalysis. Conventional cell culture media (e.g., DMEM, RPMI) have high levels of thiamine (12 μM and 3 μM, respectively). High thiamine levels will mask the inhibitory effect of N3PT. Thus, to measure the IC50 of N3PT, a thiamine depleted DMEM, containing all the ingredients of normal DMEM except for thiamine (HyClone, custom order), was used. Thiamine-depleted media (TDM) is made up with thiamine-depleted DMEM, 10% FBS, which contains low amounts of thiamine (estimated to be ˜3-5 nM) and 1% Penicillin-streptomycin.
Log-phase growing cells were trypsinized and resuspended in TDM. Twenty-four hours after seeding, 5 μl of 20× N3PT compound stock solution was added to the cells in 95 μl of TDM. After increasing times of N3PT treatment, cells were either subjected to enzymatic reactions directly or were frozen at −20° C. for future assays. […] TK activities could be measured from ≧5000 cells in most cell lines tested. […]
Enzymatic inhibition was expressed as percent of control cells that were not treated with compounds. […]

[2] = system: HCT116; assay: inhibition of proliferation of HCT116 cells; type: cell-based, human; conditions: HCT116 colon carcinoma
Experimental: (§1) The ability of N3PT to inhibit proliferation of these cell lines was then tested. LAMA84 was the most sensitive to N3PT, displaying an IC50 of 0.3 μM. The other cell lines, HCT116 and K562, were less sensitive, displaying an IC50 of approximately 2 μM in both cases. LAMA84 also had the highest TK activity (per cell) among these three cancer lines.

[3] = brain penetration after a single dose in mice; type: in vivo, mouse
Experimental: To assess the ability of N3PT to inhibit transketolase in vivo, a single dose of N3PT was administered to Balb C nude mice (ip, 100 mg/kg), and blood and tissue samples were collected over time and enzymatic activities determined. Blood samples were taken (40 μl whole blood) serially or from sacrificed animals at the end of a study. Tissues, including tumor, brain, heart, kidney, liver, lung, spleen, were taken and flash frozen in liquid nitrogen or on dry ice and stored at −80° C. until assay. Blood was diluted into lysis buffer and dissolved. Tissues were suspended in lysis buffer and homogenized with PowerGen 125 (Fisher Scientific) while being submerged in an ice-water bath.

[4] = system: LAMA84; assay: inhibition of proliferation of LAMA84 cells; type: cell-based; conditions: LAMA84 chronic myeloid leukemia cell line
Experimental: as §1

IC50 [1]: 86 nM
IC50 [2]: ~2000 nM
Structure (SMILES): Cc1ccc(C[n+]2csc(CCO)c2C)c(N)n1 [N3PT, 3-[(2-amino-6-methyl-3-pyridinyl)methyl]-5-(2-hydroxyethyl)-4-methyl thiazolium]
brain penetration [3]: little or no significant brain penetration
IC50 [4]: 300 nM
